pIC50: −log10 of the molar value.
The molecules below were run against T1, aryl hydrocarbon receptor (AHR) (Homo sapiens, UniProt P35869) (assay: DRE-Luciferase reporter high-throughput screen (AHR antagonist, VAF347-activated)).
T1 sequence (P35869 11-848): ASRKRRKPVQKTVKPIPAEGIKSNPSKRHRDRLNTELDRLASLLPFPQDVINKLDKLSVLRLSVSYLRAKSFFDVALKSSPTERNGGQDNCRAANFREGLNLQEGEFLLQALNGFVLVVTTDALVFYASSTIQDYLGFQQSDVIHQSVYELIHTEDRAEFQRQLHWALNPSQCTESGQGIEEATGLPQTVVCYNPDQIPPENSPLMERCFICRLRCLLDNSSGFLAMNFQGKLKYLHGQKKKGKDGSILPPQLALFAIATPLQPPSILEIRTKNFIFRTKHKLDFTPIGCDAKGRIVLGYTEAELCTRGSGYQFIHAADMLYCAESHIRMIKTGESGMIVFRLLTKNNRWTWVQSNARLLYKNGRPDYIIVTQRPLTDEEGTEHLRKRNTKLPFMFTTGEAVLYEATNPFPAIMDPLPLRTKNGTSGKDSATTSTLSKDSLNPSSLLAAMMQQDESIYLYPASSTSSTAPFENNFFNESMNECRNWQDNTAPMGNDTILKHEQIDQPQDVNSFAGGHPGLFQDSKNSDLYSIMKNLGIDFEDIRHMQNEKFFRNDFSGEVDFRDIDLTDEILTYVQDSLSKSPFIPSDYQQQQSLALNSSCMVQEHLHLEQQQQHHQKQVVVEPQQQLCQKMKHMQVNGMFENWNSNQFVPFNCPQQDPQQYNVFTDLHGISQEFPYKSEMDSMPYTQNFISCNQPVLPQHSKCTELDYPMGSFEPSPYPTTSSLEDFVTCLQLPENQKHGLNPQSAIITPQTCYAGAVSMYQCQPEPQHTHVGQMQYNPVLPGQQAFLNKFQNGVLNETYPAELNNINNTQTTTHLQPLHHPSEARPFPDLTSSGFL

| Structure (SMILES) | pIC50 |
| --- | --- |
| COc1ccc(Sc2nccc(N(C)C)c2C#N)cc1 [95A] | < 5.70 |
| O=C(Nc1cccc(F)c1)Nc1ccc2c(c1)C(=O)OC2 [96B] | < 5.70 |
| CSc1ccc(-c2nnc(NC(=O)C(C)(C)C)s2)cc1 [99B] | < 5.70 |
| CCOC(=O)c1cc(-c2ccc(F)cc2)[nH]c1C [100A] | < 5.70 |
| c1ccc(-c2ccc(N3CCOCC3)s2)cc1 [100B] | < 5.70 |
| CN(Cc1ccn(C)n1)C(=O)c1cc(-c2ccc(Cl)c(Cl)c2)[nH]n1 [104A] | < 5.70 |
| Cc1c(-c2cc(NC(=O)C3CC3)[nH]n2)sc2ccc(Cl)cc12 [105A] | < 5.70 |
| COC(=O)c1ccc(NC(=O)CCn2nc(C)cc2C)s1 [108A] | < 5.70 |
| Clc1ccc2nnn(OCc3cn4cc(Cl)ccc4n3)c2c1 [116A] | < 5.70 |
| O=C(COC(=O)c1cn2ccccc2n1)Nc1ccc(Cl)cc1Cl [117A] | < 5.70 |
| CC(=O)c1oc2ccc3c(C)cc(=O)oc3c2c1C [118B] | < 5.70 |
| COc1ccc(C(=O)c2cnc3ncccn23)cc1 [121A] | < 5.70 |
| Cc1nc(-c2ccc(OC3=CC=C4N=NC(C(F)(F)F)N4N3)cc2)no1 (stereo not shown) [124A] | < 5.70 |
| COC(=O)C1=C(C)Nc2nc(-c3ccccc3)nn2C1c1cccnc1 (stereo not shown) [126A] | 5.70 to 6.00 |
| COc1ccc(C2=Nn3c(nc4ccsc4c3=O)SC2)cc1 [126B] | 5.70 to 6.00 |
| N#Cc1ccccc1OCc1cc(-c2cccs2)on1 [127A] | 5.70 to 6.00 |
| Cn1c(CCC(=O)OCC(=O)N2c3ccccc3CCc3ccccc32)nc2ccccc2c1=O [127B] | < 5.70 |
| c1ccc(-c2cc(-c3cn4cccnc4n3)on2)cc1 [128A] | 5.70 to 6.00 |
| Cc1c(COc2ccccc2C#N)noc1-c1ccc(F)cc1 [129A] | 5.70 to 6.00 |
| c1ccc(-c2ccc(OCc3ccno3)cc2)cc1 [130A] | 5.70 to 6.00 |
| Cc1nccc(-c2cc(-c3ccc(Cl)cc3Cl)no2)n1 [131A] | 5.70 to 6.00 |
| Clc1ccc2nnn(OCc3coc(-c4cccs4)n3)c2c1 [132A] | 5.70 to 6.00 |

| Structure (SMILES) | pIC50 |
| --- | --- |
| c1ccc(-c2nc(CSc3nncn3-c3ccccc3)co2)cc1 [133A] | 5.70 to 6.00 |
| Cc1ccc(-c2nc(Cn3cnc(C#N)n3)co2)c(C)c1 [134A] | 5.70 to 6.00 |
| Cc1ccc(-c2nc(CSc3nccn3-c3ccccc3)co2)cc1 [136A] | < 5.70 |
| COc1ccc(-c2noc(-c3cscn3)n2)cn1 [137A] | < 5.70 |
| Cc1nn(C)cc1-c1nnc(-c2cccc(C(F)(F)F)c2)o1 [138A] | 5.70 to 6.00 |
| O=C(COc1ccccc1-c1nnc(-c2ccccc2)o1)NCc1ccccn1 [139A] | 5.70 to 6.00 |
| CNC(=O)c1ccc(CN(C)C(=O)c2ccc(-c3nnc(-c4ccccc4C)o3)cc2)cc1 [140A] | 5.70 to 6.00 |
| Cc1ccccc1OCCNC(=O)c1cc(Cl)ccc1F [141A] | 5.70 to 6.00 |
| N#Cc1ccccc1OCc1ccc(C(N)=O)cc1 [142A] | < 5.70 |
| COc1ccc(CC(=O)Nc2ccc(-c3csc(C)n3)cc2)cc1 [143A] | < 5.70 |
| CCCN(C(=O)C1CC1)c1nnc(-c2ccc(Cl)cc2)s1 [144A] | 5.70 to 6.00 |
| CN(c1nnc(NC(=O)Nc2ccccc2C(F)(F)F)s1)C1CCCCC1 [145A] | 5.70 to 6.00 |
| COC(=O)c1sc(-c2ccc(CC(C)C)cc2)cc1N [146A] | 5.70 to 6.00 |
| Cc1ccc(NC(=O)CN(C)C(C)c2cccs2)c(F)c1 (stereo not shown) [147A] | < 5.70 |
| O=C(c1csc(-c2ccc(Cl)cc2)c1)N1CCCCC1 [148A] | 5.70 to 6.00 |
| Fc1ccc(-c2ccc(-c3nnc4n3CCCCC4)s2)cc1 [149A] | < 5.70 |
| N#Cc1c(-c2ccc(Br)cc2)csc1N1CCCCC1 [150A] | < 5.70 |
| CN(C)c1oc(-c2ccc(COc3ccccc3)o2)nc1C#N [151A] | 5.70 to 6.00 |
| COc1ccc(N2CC(c3ccc(F)cc3)=CC2=O)cc1 [152A] | 5.70 to 6.00 |
| C/C(=N\CCc1ccccc1)c1c(C(F)(F)F)[nH]n(-c2nc3ccccc3s2)c1=O [153A] | < 5.70 |
| N#Cc1cc(NCCOCC(F)(F)F)nc2ccc([N+](=O)[O-])cc12 [154A] | < 5.70 |

More lines, now with the values ahead:

| pIC50 | Structure (SMILES) |
| --- | --- |
| 5.70 to 6.00 | OCc1cc(Cl)c(OCc2ccc(F)cc2)c(Cl)c1 [90B] |
| 5.70 to 6.00 | Cc1cc(C)n(CC(C)Nc2ccc(Cl)c(C#N)n2)n1 (stereo not shown) [91A] |
| 5.70 to 6.00 | CCSc1ccc(-c2ccc(-n3cccn3)cc2)nn1 [91B] |
| 5.70 to 6.00 | Cc1ccc(CS(=O)(=O)c2ccc(C(F)(F)F)cn2)cc1 [92A] |
| 5.70 to 6.00 | COC(OC)c1ccc(C#N)c(=O)n1Cc1ccc(Cl)cc1 [92B] |
| 5.70 to 6.00 | N#Cc1ccc(OCc2ncc(C(F)(F)F)cc2Cl)cc1 [93A] |
| 6.30 to 6.70 | O=S(=O)(Cc1cccc(F)c1)c1ccc2ccccc2c1 [93B] |
| 5.70 to 6.00 | COc1ccnc(Sc2ccc(Cl)cc2)c1C#N [94A] |
| 6.00 to 6.30 | Cc1cccc(CSc2nncc3ccccc23)c1 [95B] |
| 5.70 to 6.00 | c1ccc(-c2ccc(OCc3cn4ccsc4n3)cc2)cc1 [96A] |
| 5.70 to 6.00 | O=C(c1csc2nc(-c3ccc(F)cc3)cn12)N1C[C@@H]2CC[C@@H]1C2 [97A] |
| 5.70 to 6.00 | CCOC(=O)c1ccc(Nc2nc3nonc3[nH]/c2=N\OC(C)=O)cc1 [97B] |
| 5.70 to 6.00 | COc1cccc(-c2nn3c(-c4ccccn4)nnc3s2)c1 [98A] |
| 5.70 to 6.00 | Clc1ccc(Nc2nnc(-c3ccncc3)s2)cc1 [98B] |
| 5.70 to 6.00 | c1cncc(-c2nnc3sc(-c4csc5c4CCCC5)nn23)c1 [99A] |
| 5.70 to 6.00 | CC(C)NC(=O)c1nc(-c2cn(-c3ccccc3)cn2)n2ccccc12 [101A] |
| 6.30 to 6.70 | CC(=O)Nc1cc(Cl)c(-c2ccc([N+](=O)[O-])o2)c(Cl)c1 [101B] |
| 5.70 to 6.00 | O=[N+]([O-])c1ccc(C2COC(c3ccc(Cl)cc3)O2)cc1 (stereo not shown) [102B] |
| 5.70 to 6.00 | C(#Cc1ccc(-c2ccn[nH]2)cc1)c1ccccc1 [103A] |
| 6.00 to 6.30 | O=C1CC(c2ccc(Cl)cc2)CN1C(=O)Nc1ccccc1 (stereo not shown) [103B] |
| 6.00 to 6.30 | Cc1cc(-c2ccccc2)nc2c1/C(=N\O)CC(C)(C)C2 [104B] |
| 5.70 to 6.00 | CCCc1cc(C(=O)N2CCC(C3CCCCC3)C2)[nH]n1 (stereo not shown) [106A] |
| > 6.70 | CN(C)c1ccnc2sc(C(=O)c3ccccc3)c(N)c12 [106B] |
| 5.70 to 6.00 | CNS(=O)(=O)c1ccc2c(c1)CCN2C(=O)c1ccn(-c2cccc(F)c2)n1 [107A] |
| 6.30 to 6.70 | O=C(NCCc1ccc(Cl)cc1)c1cccc2nsnc12 [107B] |
| 5.70 to 6.00 | CC(=O)N(CCc1ccccc1F)c1nc2ccccc2s1 [108B] |
| 5.70 to 6.00 | Cc1ccc(-c2nnc(-c3ccncc3)[nH]2)c([N+](=O)[O-])c1 [109A] |

| pIC50 | Structure (SMILES) |
| --- | --- |
| 5.70 to 6.00 | O=C(NCCC1=CCCCC1)c1[nH]nc2c1CCCC2 [109B] |
| 5.70 to 6.00 | Cc1ccc(-n2nnc(-c3ccc(Cl)cc3)n2)cc1 [110A] |
| 6.30 to 6.70 | COc1ccc(-c2cc(=O)c3cc(OC(=O)C(C)(C)C)ccc3o2)cc1 [110B] |
| 5.70 to 6.00 | O=C(Cc1ccccc1)Nc1ccc2nc(C(F)(F)F)[nH]c2c1 [111A] |
| 6.30 to 6.70 | O=c1ccc2ccc(OCc3ccc(F)cc3Cl)cc2o1 [111B] |
| 5.70 to 6.00 | COc1ccc(OCCSc2nc3ccc(Br)cc3[nH]2)cc1 [112A] |
| 6.30 to 6.70 | O=c1cc(CSc2nc3cc(Cl)ccc3o2)nc2sccn12 [112B] |
| 5.70 to 6.00 | Cc1ccc2nc(C3=C(N)N(CC(C)C)CC3=O)[nH]c2c1 [113A] |
| 5.70 to 6.00 | Cc1ccc(OCc2cc(=O)n3ccsc3n2)cc1C [113B] |
| 5.70 to 6.00 | FC(F)(F)c1cccc(Nc2nc3ccccc3[nH]2)c1 [114A] |
| 5.70 to 6.00 | N#Cc1ccc(CSc2ncc3ccccn23)cc1 [115A] |
| 6.00 to 6.30 | Cc1cccc(N2CC[C@H]3[C@H]2CCN3c2ncccn2)n1 [115B] |
| 5.70 to 6.00 | COC(=O)c1cc2c(ccn2-c2ccc(F)cc2)n1CCC#N [116B] |
| 5.70 to 6.00 | CCCCCc1ccc2c(C#N)c(OC)ccc2c1 [117B] |
| 5.70 to 6.00 | COc1ccc(-c2cc3ncc(-c4ccccc4)c(N)n3n2)cc1 [118A] |
| 5.70 to 6.00 | COCCNc1c(C)c(C)nc2cc(-c3cc(C)oc3C)nn12 [119A] |
| 6.30 to 6.70 | Cc1nn2c(-c3cccc(NC(=O)CN4CCCCC4)c3)nnc2c2ccccc12 [119B] |
| 5.70 to 6.00 | Cc1cc(Cl)ccc1OCc1cn2cccnc2n1 [120A] |
| 6.00 to 6.30 | N#Cc1c(N)c(-c2ccc(F)cc2)cn2c1nc1ccccc12 [120B] |
| 6.00 to 6.30 | COc1ccc(C2=C(C#N)c3nc4ccccc4n3C(=O)C2C#N)cc1 (stereo not shown) [121B] |
| 5.70 to 6.00 | Cc1cc(C)c2c(NCc3ccccc3F)[nH]nc2n1 [122A] |
| 5.70 to 6.00 | CCn1c2ccccc2c2nnc(-n3nc(C)cc3C)nc21 [122B] |
| 5.70 to 6.00 | COc1ccccc1CNc1[nH]nc2nc(C)cc(C)c12 [123A] |
| 5.70 to 6.00 | N#Cc1c(N)nc2c(oc3ccccc32)c1-c1ccccc1 [123B] |
| 6.00 to 6.30 | Cc1ccc2nc3c(c(N)c2c1)CCN3c1ccccc1 [124B] |
| 5.70 to 6.00 | Cc1nc2nc(SCCOc3ccc(C#N)cc3)nn2c(C)c1C [125A] |
| 6.30 to 6.70 | Cc1cccn2c(=O)c3cc(C(=O)NCc4ccccc4Cl)sc3nc12 [125B] |

Source: US20210220408A1, “ARYL HYDROCARBON RECEPTOR ANTAGONISTS AND METHODS OF USE” (Magenta Therapeutics Inc., priority 2018, published 2021)
